In paper PMC6449294, “SNAPshots of the MCHR1: a Comparison Between the PET-Tracers [^18F]FE@SNAP and [^11C]SNAP-7941” (Molecular Imaging and Biology, 2018):
“Also recorded” adds a separate entry of the source.

Legend:
MCHR1 = molecular target: T1, MCHR1 (Rattus norvegicus, UniProt P97639); assay: Small animal PET displacement study with (±)-SNAP-7941 (time-activity curves); type: in vivo; settings: rats; for change of brown adipose tissue (BAT) TAC after administration of (±)-SNAP-7941 / change of lung TAC after displacement: 15 mg/kg (±)-SNAP-7941; for displacement in whole brain (TAC): 15 mg/kg (±)-SNAP-7941 i.v. 15 or 20 min after tracer
T1 construct: from tissue; host or cells: living Sprague-Dawley rats (PET) and their organs after sacrifice
Experimental: Ten-week-old male rats (412 ± 58 g, Sprague-Dawley, HIM:OFA, n = 30) and 12-week-old male mice (24 ± 6 g, BALB/cAnNRj, n = 7) were purchased from the Division of Laboratory Animal Science and Genetics, Himberg, Austria. Animals were kept under conventional housing conditions (22 ± 1 °C; 40–70 % humidity) with food and water supply ad libitum and 12-h day/night cycle. All animals were treated according to the European Union rules on animal care and respective animal experiments were approved by the Austrian Ministry of Sciences, Research and Economy (BMWFW-66.009/0029-WF/V/3b/20159). For in vivo imaging, animals were anesthetized using 1.5–2 % isoflurane mixed with oxygen (1.5–2 l/min) to avoid movement during the examination. Anesthesia as well as vital parameters were monitored during the time interval of PET acquisition. Radioligands and non-labeled compounds were administered intravenously via the lateral tail vein.
Anesthetized rats and mice were immobilized in a multimodal animal carrier unit (MACU; medres®—medical research GmbH, Cologne, Germany). The body temperature was preserved at 37 °C throughout the whole experiment. Rats received either [^11C]SNAP-7941 or [^18F]FE@SNAP, followed by an injection of (±)-SNAP-7941 (15-mg/kg body weight; displacement study; n = 4 for each radiotracer) or the respective solvent serving as the vehicle (baseline condition; n = 4 for each radiotracer). The MCHR1 antagonist, (±)-SNAP-7941, and the vehicle were administered either 15 ([^11C]SNAP-7941) or 20 min ([^18F]FE@SNAP) after the radiotracer application via the lateral tail vein. To investigate a potential binding to the P-glycoprotein (P-gp) and/or breast cancer resistance protein (BCRP) brain efflux transporter system, rats as well as mice were pretreated either with the P-gp/BCRP inhibitor TQD (15 mg/kg body weight; P-gp/BCRP inhibition group; rats: n = 4 for each radiotracer; mice: n = 4 for [^18F]FE@SNAP) or the respective solvent (baseline condition; rats: n = 3 for each radiotracer; mice: n = 3 for [^18F]FE@SNAP)). Mice received the P-gp/BCRP inhibitor 30 min and rats 60 min before the radiotracer application. Experiments were initiated with a 7-min cone beam attenuation CT (CBCT) of the brain (full rotation, 360 projections; binning 4 × 4; 80 kV; 500 μA; 200-ms exposure time) using a small animal cone beam computed tomography (CBCT) scanner (Siemens Inveon microSPECT/CT, Siemens Medical Solutions, Knoxville, USA). Subsequently, the animals were positioned in the Siemens Inveon microPET scanner (Siemens Medical Solution, Knoxville, USA). The radiotracers were injected intravenously, and dynamic PET imaging was performed for 45 min (rats) in case of [^11C]SNAP-7941 (77.46 ± 5.41 MBq; molar activity 76.66 ± 23.58 GBq/μmol; radiochemical purity > 99 %) and 30 min (mice)—60 min (rats) for [^18F]FE@SNAP (47.08 ± 6.24 MBq; molar activity 22.18 ± 9.72 GBq/μmol; radiochemical purity > 90 %).
Image reconstruction of the CT raw data was performed with a Feldkamp algorithm using a ramp filter followed by standard rat beam-hardening correction and noise reduction (matrix size 1024 × 1024; effective pixel size: 97.56 μm). All CT image data was calibrated to Hounsfield units (HU). PET list mode data were sorted into three-dimensional sinograms according to the following frame sequences, [^11C]SNAP-7941: 1 × 3 s, 3 × 2 s, 1 × 6 s, 1 × 15 s, 1 × 35 s, 1 × 145 s, 1 × 270 s, 1 × 285 s, 1 × 165 s, 3 × 30 s, 1 × 120 s, 1 × 240 s, 1 × 420 s, 1 × 900 s and for [^18F]FE@SNAP: 1 × 2 s, 1 × 3 s, 1 × 5 s, 3 × 10 s, 1 × 20 s, 1 × 60 s, 1 × 120 s, 4 × 240 s, 4 × 600 s. PET image reconstruction were performed using an OSEM 3D/OP-MAP with scatter correction and a ramp filter (matrix size 128 × 128). Image data were normalized and corrected for random events, dead time, and radioactive decay. A calibration factor was applied to convert the activity information into absolute concentration units. […]

[1] = Ex vivo metabolites in rat whole blood (radio-HPLC); settings: for Metabolism in rat blood: ex vivo, result in words
Experimental: For the analysis of potential radiometabolites, blood samples (50–80 μl) from rats were withdrawn at 10 and 45 min for [^11C]SNAP-7941 and at 10, 30, and 60 min for [^18F]FE@SNAP and immediately subjected to the equivalent amount of acetonitrile, homogenized, and stored on ice before processing. Additionally, [^18F]FE@SNAP was administered to three rats, which were sacrificed after 45 min. Whole brains were harvested and homogenized with equivalent amounts (500–800 μl) of acetonitrile and 0.9 % saline solution using an ULTRA-TURRAX® (T25 basic, IKA Laboratory Equipment, Staufen, Germany). Subsequently, blood and brain were centrifuged (23,000 ×g, 4 min, 4 °C; Hettich Universal 30RF, Tuttlingen, Germany), and the obtained supernatant was analyzed by an analytical HPLC equipped with a radioactivity detector (radio-HPLC) (stationary phase: Chromolith® Performance RP-18e, 100–4.6 mm; precolumn: Chromolith® Guard Cartridge RP-18e, 5–4.6 mm; Merck, Darmstadt, Germany), mobile phase: (water/acetic acid 97.5/2.5 v/v; 2.5 g/l ammonium acetate; pH 3.5)/acetonitrile 70/30 v/v; flow: 1 ml/min, λ = 254 nm). The ratio between metabolite and intact radiotracer was calculated using quantitative HPLC analysis.

[2] = set-up: method as in earlier work; settings: previous studies; ref 30 and 34 (table), 32 and 36; cited from earlier work
[3] = 10 min after radiotracer application

T1 sequence (P97639 whole entry): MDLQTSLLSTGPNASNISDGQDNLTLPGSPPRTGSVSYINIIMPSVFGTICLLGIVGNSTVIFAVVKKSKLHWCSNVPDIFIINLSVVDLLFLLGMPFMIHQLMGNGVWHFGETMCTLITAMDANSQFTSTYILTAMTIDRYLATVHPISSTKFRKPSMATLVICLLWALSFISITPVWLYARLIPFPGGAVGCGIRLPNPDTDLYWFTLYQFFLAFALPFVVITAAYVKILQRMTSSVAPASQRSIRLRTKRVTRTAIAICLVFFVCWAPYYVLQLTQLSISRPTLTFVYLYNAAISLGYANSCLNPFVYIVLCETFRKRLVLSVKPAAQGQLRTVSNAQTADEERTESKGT

Row | SMILES | change of brown adipose tissue (BAT) TAC after administration of (±)-SNAP-7941 (MCHR1) | change of lung TAC after displacement (MCHR1) | displacement in whole brain (TAC) (MCHR1) | intact tracer in rat whole blood [1, 3] [%] | intact tracer in rat whole blood ([1]; 45 min) [%] | Metabolism in rat blood [1] | Lipophilicity (logD) [2] | intact tracer in rat whole blood ([1]; 30 min after administration) [%] | intact tracer in rat whole blood ([1]; 60 min) [%]
1 | COCC1=C(C(=O)O[11CH3])C(c2ccc(F)c(F)c2)N(C(=O)NCCCN2CCC(c3cccc(NC(C)=O)c3)CC2)C(=O)N1 (stereo not drawn) [[^11C]SNAP-7941] | increased uptake | drop in the TAC | clear displacement | 93.52 ± 0.1 | 93.74 ± 6.2 | high metabolic stability; also recorded: Stable | 3.29 ± 0.01 | – | –
2 | COCC1=C(C(=O)OCC[18F])C(c2ccc(F)c(F)c2)N(C(=O)NCCCN2CCC(c3cccc(NC(C)=O)c3)CC2)C(=O)N1 (stereo not drawn) [[^18F]FE@SNAP] | increased uptake | drop in the TAC | displacement could not be detected | 38.40 ± 2.3 | – | Rapidly metabolized | 3.83 ± 0.1 | 31.59 ± 4.0 | 14.42 ± 3.3
